The values below are quoted from earlier work in patent US20100016828A1, “Drug Delivery System and Method” (priority 1995, published 2010).

In data set [1] the test system is blood-brain barrier. To be noted: hyperosmolar saturated solution of 25% mannitol, intra-arterial infusion for approximately 30 seconds.
For data set [2] the following is noted: intrathecal administration; at 1 hour.
For data set [3] the following is noted: cat brain.

In the case of hematoporphyrin derivative [HpD], the “HpD uptake relative to normal brain tissue” value (glioblastomas) is 30 times. Further, the “HpD uptake relative to normal tissue” value (low-grade tumors) is recorded as 8 times.
With `OC[C@@H](O)[C@@H](O)[C@H](O)[C@H](O)CO` [mannitol], the “period of nonselective entry of substances into the CNS and tumor after blood-brain barrier disruption” value in data set [1] is “approximately 30 minutes”.
On to `CN(Cc1cnc2nc(N)nc(N)c2n1)c1ccc(C(=O)N[C@@H](CCC(=O)O)C(=O)O)cc1` [methotrexate], for which the “depth of penetration into parenchymal tissue” value in data set [2] was 3.2 mm.
For `OC[C@H]1O[C@@](CO)(O[C@H]2O[C@H](CO)[C@@H](O)[C@H](O)[C@H]2O)[C@@H](O)[C@@H]1O` [sucrose], the “distribution into gray matter” value in data set [3] (after interstitial infusion) was “extensively distributed into gray matter by two hours”. Besides, the “spread in an anterior-posterior direction” value in data set [3] (two hour infusions, immediately after completion of the infusion) is given as “≈ 2.0 cm”.
